Measurements taken from publication PMC11215307, “Targeting dermatophyte Cdc42 and Rac GTPase signaling to hinder hyphal elongation and virulence” (iScience, 2024).
Entries after “also recorded” stand apart in the source; their conditions may differ.

Columns and labels:
TrCdc42 = assay: Guanine nucleotide exchange assay of TrCdc42-His promoted by TrCdc24 DH-PH (bodipy-FL GTP fluorescence); assay type: biochemical, Trichophyton rubrum; details: for IC50: guanine nucleotide exchange of TrCdc42 by TrCdc24, fluorescence at 60 min; for Selectivity between fungal Cdc42 and Rac: comparison of TrCdc42 and TrRac IC50 (Table 1)
Description: (§1) One μM of TrRac or TrCdc42-His was mixed with 0.1 μM bodipy-FL GTP (Thermo Fisher, Waltham, MA, USA) in Buffer A and allowed to equilibrate for 3 min at 20°C–25°C. Ammonium sulfate, EDTA, or recombinant TrCdc24 DH-PH proteins were incubated with the compounds or vehicles alone (final DMSO concentration: 1%) at the indicated concentrations in the reaction buffer for 20 min at room temperature. The reaction was initiated by combining TrRac or TrCdc42/bodipy-FL GTP (100 μL) with Cdc24DH-PH (50 μL) at room temperature. The change in bodipy-FL-GTP fluorescence (excitation: 485 nm, emission: 535 nm) was monitored for 60 min using a Berthold tristar2 LB942.
(§2) Statistical analyses were conducted using Microsoft Excel and Prism 10, GraphPad. All experiments were performed more than three times. Statistical significance was determined using Student’s t test, one-way analysis of variance, and Tukey–Kramer test. IC50 values were ascertained by plotting the fluorescent intensity (% of control) at 60 min using a specific formula: IC50=x2−(x2/x1)^(50−y2/y2−y1)

TrRac = assay: Guanine nucleotide exchange assay of TrRac promoted by TrCdc24 DH-PH (bodipy-FL GTP fluorescence); assay type: biochemical, Trichophyton rubrum; details: fluorescence at 60 min
Description: as §1, §2

[1] = test system: T. rubrum conidial germination; assay: T. rubrum conidia germination assay; assay type: cell-based, Trichophyton rubrum; details: for IC50: overnight incubation at 28°C in Sabouraud medium, calcofluor white staining; for Effect on conidial germination in T. rubrum: in cellulo screen of small GTPase inhibitors
Description: Fungal conidia (2 × 10^6) were subjected to an overnight incubation at 28°C in Sabouraud medium, supplemented with 1% DMSO (control) or the Rac and/or Cdc42 inhibitors; 10, 32, and 100 μM EHop-016; 100, 320, and 1000 μM AZA1; 10, 32, and 100 μM EHT1864; 10, 100, and 1000 μM CASIN; 200, 500, and 1000 μM NSC23766; 20, 200, and 2000 μM ketorolac; 100 μM MBQ-167; 1 and 10 μM ML-141; 1000 μM ZCL278; and 50 μM ITX3. Following the incubation, the fungal conidia were washed twice with saline and then stained with 0.2 mM calcofluor white. The germinated and ungerminated conidia were subsequently observed and counted under a fluorescent microscope (Olympus BX53).

T. rubrum = assay: Invertebrate (silkworm) infection model of dermatophytosis; assay type: in vivo, Bombyx mori; details: conidia (5 × 10^6) injected into silkworm hemolymph
Description: Eggs from silkworms were procured from Ehime-Sansh Co., Ltd. (Japan) and reared following a method described previously.[86]^,[87] Fifth instar silkworm larvae were nourished with an artificial diet (Silkmate 2S; Ehime-Sanshu Co., Ltd., Japan) overnight.[88]^,[89] Dermatophyte infection was conducted in accordance with a previously outlined procedure.[53] Conidia (5 × 10^6) of T. rubrum were injected into the silkworm hemolymph.

[2] = test system: T. rubrum growth on human nail fragments; assay: In vitro nail infection assay; assay type: cell-based, Trichophyton rubrum; details: 2.6% (60 mM) EHop-016, four applications every 24 h, observed after 36 days at 28°C, versus vehicle
Description: The conidial suspension (1 × 10^4/10 μL/nail fragment) of T. rubrum was administered to autoclaved nail fragments obtained from an adult volunteer (ethics approval, No. R3-6, Musashino University, Japan) and incubated at 28°C. After 24 h, either the vehicle (30% DMSO/5% Tween 80) or 60 mM EHop-016 was applied to the nail fragment. A total of four applications were administered every 24 h. The nails were examined after 36 days of incubation.

[3] = test system: T. rubrum mycelial growth; assay: Mycelial growth inhibition on modified 1/10 Sabouraud glucose agar; assay type: cell-based, Trichophyton rubrum; details: in cellulo screen of small GTPase inhibitors
Description: Trichophyton rubrum CBS118892, Escherichia coli BL21, and Agrobacterium tumefaciens EHA105 were used.[74]^,[78]^,[79] E. coli BL21 was cultured in LB medium with appropriate antibiotics at 37°C. A. tumefaciens was cultured in LB or Agrobacterium induction medium supplemented with 0.2 mM acetosyringone at 28°C.[73] T. rubrum was cultured at 28°C. Conidia of T. rubrum were prepared using a previously described method.[80] Sabouraud agar or RPMI with MOPS agar was used for hyphal formation. To evaluate mycelial growth inhibition by inhibitors, a modified 1/10 Sabouraud glucose agar (containing 0.2% bacto peptone, 0.1% glucose, 0.1% KH2PO4, 0.1% MgSO4 7H2O, 1.5% bacto agar, pH unadjusted) was used.

Row | Compound | IC50 (TrCdc42) | IC50 (TrRac) | IC50 [1] | Survival of silkworms infected with T. rubrum (T. rubrum) | Selectivity between fungal Cdc42 and Rac (TrCdc42) | IC50 ([1]; Trichophyton rubrum) | T. rubrum growth on human nails [2] | Effect on mycelial growth in T. rubrum [3] | Effect on conidial germination in T. rubrum [1] | Inhibitory activity in conidial germination inhibition assay ([1]; at 100 μM)
1 | COc1ccc(C2CC(c3ccccc3)=NN2c2ccc(S(N)(=O)=O)cc2)cc1 (centres unmarked) [ML-141] | > 1000 µM | > 1000 µM | 1.7 µM |  |  |  |  |  |  | 
2 | CCn1c2ccccc2c2cc(Nc3ccnc(NCCCN4CCOCC4)n3)ccc21 [EHop-016] | 40 µM | 137 µM |  | significantly extended the survival | higher selectivity for Cdc42 than for Rac | 45 µM | no fungal lawn was observed; also recorded: lesser T. rubrum growth on the nails |  |  | 
3 | O=c1cc(CN2CCOCC2)occ1OCCCCCSc1ccnc2cc(C(F)(F)F)ccc12 [EHT1864] | 154 µM | > 1000 µM |  |  | higher selectivity for Cdc42 than for Rac | 16 µM |  | hindered | hindered | 
4 | CCn1c2ccccc2c2cc(-n3nncc3-c3ccccc3)ccc21 [MBQ-167] | > 100 µM | > 100 µM |  |  |  | > 100 µM |  |  |  | did not show any inhibitory activity
5 | CCN(CC)CCCC(C)Nc1nc(C)cc(Nc2ccc3nc(C)cc(N)c3c2)n1 (centres unmarked) [NSC23766] | 368 µM | 477 µM |  |  |  | 640 µM |  | hindered | hindered | 
6 | OCCNC1CCCc2c1[nH]c1ccc(-c3ccccc3)cc21 (centres unmarked) [CASIN] | 192 µM | 518 µM | 20 µM |  |  |  |  |  |  | 
7 | NAV2729 |  |  |  |  |  |  |  | did not | did not | 
8 | Rhosin |  |  |  |  |  |  |  | did not | did not | 
9 | O=C(c1ccccc1)c1ccc2n1CCC2C(=O)O (centres unmarked) [Ketorolac] | 889 µM | 1420 µM |  |  |  | 363 µM |  |  |  | 
10 | Cc1cc(/C=c2/sc3nc4ccccc4n3c2=O)c(C)n1-c1ccccc1 [ITX3] | > 50 µM | > 50 µM | > 50 µM |  |  |  |  |  |  | 
11 | C[C@H]1CCC/C=C/[C@@H]2C[C@H](O)C[C@H]2[C@H](O)/C=C/C(=O)O1 [Brefeldin A] |  |  |  |  |  |  |  | did not | did not | 
12 | Cc1cc2cc(Nc3ccnc(Nc4ccc5[nH]c(C)cc5c4)n3)ccc2[nH]1 [AZA1] | 147 µM | 127 µM |  |  |  | 127 µM |  | hindered | hindered | 
13 | Cc1cc(C)nc(NS(=O)(=O)c2ccc(NC(=S)NC(=O)COc3ccc(Br)cc3Cl)cc2)n1 [ZCL278] | > 1000 µM | > 1000 µM | > 1000 µM |  |  |  |  |  |  | 
